Source: ChEMBL document CHEMBL5537165, “Hepatitis C: The Story of a Long Journey through First, Second, and Third Generation NS3/4A Peptidomimetic Inhibitors. What Did We Learn?” (J Med Chem, 2024)
Where “and” joins values, the source holds several entries; their conditions need not be identical. Equal values may be shown once.

Assays:
[1] = target: T1, Non-structural protein 4b (Hepacivirus hominis, UniProt F5B4I0); experiment: Inhibition of Hepatitis C virus genotype 3a NS4B expressed in Escherichia coli
T1 sequence (F5B4I0 whole entry): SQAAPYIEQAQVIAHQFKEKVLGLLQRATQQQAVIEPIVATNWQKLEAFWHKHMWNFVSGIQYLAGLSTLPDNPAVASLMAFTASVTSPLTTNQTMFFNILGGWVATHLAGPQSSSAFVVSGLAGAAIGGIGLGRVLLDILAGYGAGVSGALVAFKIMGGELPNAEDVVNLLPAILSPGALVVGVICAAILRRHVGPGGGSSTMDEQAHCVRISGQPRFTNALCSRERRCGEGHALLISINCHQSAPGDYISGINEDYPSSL

[2] = target: Replicase polyprotein 1ab (Severe acute respiratory syndrome coronavirus 2, UniProt P0DTD1); experiment: Inhibition of SARS-CoV-2 3CL protease by FRET assay
SARS-CoV-2 [3] = experiment: Antiviral activity against SARS-CoV-2 infected in African green monkey Vero E6 cells assessed as reduction in viral replication measured after 48 hrs by Hoechst 33342 staining based analysis; format: functional, organism-based; conditions: Severe acute respiratory syndrome coronavirus 2, Vero C1008, 48 h
Hepatitis C virus [4] = experiment: Antiviral activity against Hepatitis C virus genotype 1a infected in human Huh-7 cells assessed as reduction in viral infection; format: functional, organism-based, Hepacivirus hominis
Hepatitis C virus [5] = experiment: Antiviral activity against Hepatitis C virus genotype 1b infected in human Huh-7 cells assessed as reduction in viral infection; format: functional, organism-based, Hepacivirus hominis
[6] = Half life in Sprague-Dawley rat at 5 mg/kg, po by LC-MS/MS analysis; format: ADME, organism-based; conditions: in vivo
[7] = Cmax in Sprague-Dawley rat at 3 mg/kg, po and measured upto 24 hrs by LC-MS/MS analysis; format: ADME, organism-based; conditions: in vivo
[8] = AUC in Sprague-Dawley rat at 5 mg/kg, po measured upto 24 hrs by LC/MS/MS analysis; format: ADME, organism-based; conditions: in vivo
[9] = Volume of distribution at steady state in Sprague-Dawley rat at 3 mg/kg, iv measured up to 24 hrs by LC-MS/MS analysis; format: ADME, organism-based; conditions: in vivo, read-out: Vdss
[10] = AUC (0 to infinity) in liver to plasma of Sprague-Dawley rat at 3 mg/kg,po; format: ADME, organism-based; conditions: in vivo
[11] = Clearance in Sprague-Dawley rat at 0.5 mg/kg, iv by LC-MS/MS analysis; format: ADME, organism-based; conditions: in vivo
[12] = AUC in Beagle dog at 5 mg/kg, po measured upto 24 hrs by LC/MS-MS analysis; format: ADME, organism-based, Canis lupus familiaris; conditions: in vivo
[13] = Oral bioavailability in Sprague-Dawley rat at 3 mg/kg by LC-MS/MS analysis; format: ADME, organism-based; conditions: in vivo
RNA = experiment: Inhibition of Hepatitis C virus RNA; format: nucleic-acid assay, Hepacivirus hominis
[14] = target: T1, Non-structural protein 4b; experiment: Inhibition of Hepatitis C virus genotype 5a NS4B
SARS-CoV-2 [15] = experiment: Antiviral activity against SARS-CoV-2 infected in African green monkey Vero cells assessed as reduction in viral replication measured after 72 hrs by qRT-PCR analysis; format: functional, organism-based; conditions: Severe acute respiratory syndrome coronavirus 2, Vero
[16] = target: T1, Non-structural protein 4b; experiment: Inhibition of Hepatitis C virus genotype 4a NS4B
[17] = target: T1, Non-structural protein 4b; experiment: Inhibition of Hepatitis C virus genotype 1b NS4B
[18] = target: T1, Non-structural protein 4b; experiment: Inhibition of Hepatitis C virus genotype 3a NS4B
[19] = target: T1, Non-structural protein 4b; experiment: Inhibition of Hepatitis C virus genotype 6a NS4B
[20] = target: T1, Non-structural protein 4b; experiment: Inhibition of Hepatitis C virus genotype 1a NS4B
[21] = Oral bioavailability in Sprague-Dawley rat; format: ADME, organism-based; conditions: in vivo
[22] = target: Hepatitis C virus NS5B RNA-dependent RNA polymerase (Hepatitis C virus, UniProt Q8JXU8); experiment: Binding affinity to Hepatitis C virus genotype 2a NS5B polymerase assessed as inhibition constant
[23] = target: T1, Non-structural protein 4b; experiment: Binding affinity to Hepatitis C virus genotype 6a NS4B assessed as inhibition constant
[24] = target: T1, Non-structural protein 4b; experiment: Binding affinity to Hepatitis C virus genotype 1b NS4B assessed as inhibition constant
[25] = target: T1, Non-structural protein 4b; experiment: Binding affinity to Hepatitis C virus genotype 1a NS4B assessed as inhibition constant
[26] = target: T1, Non-structural protein 4b; experiment: Binding affinity to Hepatitis C virus genotype 3a NS4B assessed as inhibition constant
[27] = Oral bioavailability in Beagle dog at 2 mg/kg; format: ADME, organism-based, Canis lupus familiaris; conditions: in vivo
[28] = AUC in Sprague-Dawley rat at 2 mg/kg, po; format: ADME, organism-based; conditions: in vivo
[29] = target: T1, Non-structural protein 4b; experiment: Binding affinity to Hepatitis C virus genotype 4a NS4B assessed as inhibition constant
Hepatitis C virus [30] = experiment: Antiviral activity against HCV assessed as inhibition of RNA replication; format: functional, organism-based, Hepacivirus hominis
[31] = target: T1, Non-structural protein 4b; experiment: Inhibition of Hepatitis C virus genotype 2b NS4B
[32] = Half life in Beagle dog at 5 mg/kg, po by LC-MS/MS analysis; format: ADME, organism-based, Canis lupus familiaris; conditions: in vivo
[33] = Half life in Cynomolgus monkey at 1.0 mg/kg,iv or 1.25 mg/kg, po; format: ADME, organism-based, Macaca fascicularis; conditions: in vivo
[34] = AUC in Sprague-Dawley rat plasma […] at 10 mg/kg, po administered via gavage by LC-MS/MS analysis; format: ADME, organism-based; conditions: in vivo
[35] = Half life in human liver microsomes at 1 uM by LC-MS/MS analysis; format: ADME, Microsome
[36] = Clearance in Sprague-Dawley rat at 2 mg/kg, iv by LC-MS/MS analysis; format: ADME, organism-based; conditions: in vivo
[37] = Clearance in Beagle dog at 2 mg/kg, iv by LC-MS/MS analysis; format: ADME, organism-based, Canis lupus familiaris; conditions: in vivo
[38] = AUC in Beagle dog at 2 mg/kg, po; format: ADME, organism-based, Canis lupus familiaris; conditions: in vivo
Hepatitis C virus [39] = experiment: Antiviral activity against Hepatitis C virus infected in human Huh7.5 cells pretreated […] for 2 hrs followed by viral infection for 1 hrs by plaque assay; format: functional, organism-based, Hepacivirus hominis
[40] = target: T1, Non-structural protein 4b; experiment: Binding affinity to Hepatitis C virus genotype 2b NS4B assessed as inhibition constant
[41] = Volume of distribution at steady state in Sprague-Dawley rat at 1 mg/kg, iv; format: ADME, organism-based; conditions: in vivo, read-out: Vdss
[42] = Volume of distribution at steady state in Beagle dog at 0.5 mg/kg, iv and measured upto 24 hrs by LC-MS/MS analysis; format: ADME, organism-based, Canis lupus familiaris; conditions: in vivo, read-out: Vdss
[43] = Cmax in Beagle dog at 3 mg/kg, po and measured upto 24 hrs by LC-MS/MS analysis; format: ADME, organism-based, Canis lupus familiaris; conditions: in vivo
[44] = Clearance in Beagle dog plasma at 0.5 mg/kg, iv and measured upto 24 hrs by LC-MS/MS analysis; format: ADME, organism-based, Canis lupus familiaris

Hepatitis C virus NS5B RNA-dependent RNA polymerase, sequence (Q8JXU8 whole entry): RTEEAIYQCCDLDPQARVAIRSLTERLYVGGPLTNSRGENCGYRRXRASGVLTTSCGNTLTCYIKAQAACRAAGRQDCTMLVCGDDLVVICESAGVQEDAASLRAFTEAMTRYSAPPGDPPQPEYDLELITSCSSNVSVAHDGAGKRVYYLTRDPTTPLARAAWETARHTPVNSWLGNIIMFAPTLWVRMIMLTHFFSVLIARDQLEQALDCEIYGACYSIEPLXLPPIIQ

COc1cnc(O[C@@H]2C[C@H]3C(=O)N[C@]4(C(=O)NS(=O)(=O)C5CC5)CC4/C=C\CCCCC[C@H](NC(=O)OC(C)(C)C)C(=O)N3C2)c2cc(Cl)ccc12 (some centres not stated)
IC50 [1]: 51 nM

C=C[C@@H]1C[C@]1(NC(=O)[C@@H]1C[C@@H](Oc2cc(-c3csc(C(=O)CC)n3)nc3c(C)c(OC)ccc23)CN1C(=O)[C@@H](NC(=O)OC1CCCC1)C(C)(C)C)C(=O)O
IC50 [2]: 10 nM
EC50 (SARS-CoV-2 [3]): 12 nM

COc1ccc2c(O[C@@H]3C[C@H]4C(=O)N[C@]5(C(=O)NS(=O)(=O)C6CC6)C[C@H]5/C=C\CCCCC[C@H](CC(=O)N5CCCC(F)(F)C5)C(=O)N4C3)cc(-c3nc(C(C)C)cs3)nc2c1C
EC50 (Hepatitis C virus [4]): 0.04 nM
EC50 (Hepatitis C virus [5]): 0.7 nM

C=C[C@@H]1C[C@]1(NC(=O)[C@@H]1C[C@@H](Oc2cc(-c3csc(NC(=O)C(C)C)n3)nc3c(Br)c(OC)ccc23)CN1C(=O)[C@@H](NC(=O)OC1CCCC1)C(C)(C)C)C(=O)O
half-life [6]: 1.2 h
Cmax [7]: 400 nM
AUC [8]: 1.55 µM·h
Vd [9]: 1.2 L/kg
AUC [10]: 40 µM·h
clearance [11]: 20 mL/min/kg
AUC [12]: 13 µM·h
bioavailability [13]: 40%

Cc1ccc2nc(-c3ccc4nc(-c5ccc(NC(=O)c6cc(C(F)(F)F)cc(C(F)(F)F)c6)cc5)sc4c3)sc2c1S(=O)(=O)O
IC50 (RNA): 5 nM

CC(C)Oc1ccc(-c2nc(O[C@@H]3C[C@H]4C(=O)N[C@]5(C(=O)NS(=O)(=O)C6(C)CC6)C[C@H]5/C=C\CCCCC[C@H](NC(=O)OC5CCCC5)C(=O)N4C3)c3oc4ccccc4c3n2)cc1
IC50 [14]: 0.6 nM
EC50 (SARS-CoV-2 [15]): 1.6 nM
IC50 [16]: 0.6 nM
EC50 [1]: 1.6 nM
IC50 [17]: 0.6 nM
IC50 [18]: 600 nM
IC50 [19]: 0.6 nM
IC50 [20]: 0.6 nM

CC(C)(C)[C@@H]1NC(=O)O[C@@H]2CCC[C@H]2OC/C=C/C(F)(F)c2nc3ccccc3nc2O[C@@H]2C[C@@H](C(=O)N[C@]3(C(=O)NS(=O)(=O)C4(C)CC4)C[C@H]3C(F)F)N(C2)C1=O
IC50 [14]: 8.1 nM
half-life [6]: 2.8 h
bioavailability [21]: 90%
IC50 [16]: 6.1 nM
Ki [22]: 0.053 nM
IC50 [17]: 8.9 nM
IC50 [18]: 7900 nM
Ki [23]: 0.11 nM
Ki [24]: 0.063 nM
Ki [25]: 0.075 nM
Ki [26]: 0.96 nM
bioavailability [27]: 95%
AUC [28]: 22 µM·h
Ki [29]: 0.92 nM and 0.092 nM
IC50 [19]: 11.3 nM
EC50 (Hepatitis C virus [30]): 0.24 nM
IC50 [31]: 3.8 nM
IC50 [20]: 4.4 nM
half-life [32]: 0.6 h

C=C[C@@H]1C[C@]1(NC(=O)[C@@H]1C[C@@H](Oc2cc(-c3ccccc3)nc3cc(OC)ccc23)CN1C(=O)[C@@H](CC(=O)N1CCCCC1)C(C)(C)C)C(=O)NS(=O)(=O)C1CC1 [SOVAPREVIR]
half-life [6]: > 90 h
Ki [24]: 0.06 nM
AUC [10]: > 505 µM·h
half-life [33]: 10.4 h
AUC [34]: 339 µM·h
IC50 [20]: 11 nM
half-life at 1 µM [35]: 1.77 h
half-life [32]: 115 h

C=C[C@@H]1C[C@]1(NC(=O)[C@@H]1C[C@@H](Oc2cc(-c3csc(NC(C)C)n3)nc3c(C(C)C)c(OC)ccc23)CN1C(=O)[C@@H](NC(=O)OC1CCCC1)C(C)(C)C)C(=O)O
IC50 [2]: 14 nM
EC50 (SARS-CoV-2 [3]): 45 nM

CCC[C@H](NC(=O)[C@@H]1[C@H]2CCC[C@H]2CN1C(=O)[C@@H](NC(=O)[C@@H](NC(=O)c1cnccn1)C1CCCCC1)C(C)(C)C)C(=O)C(=O)NC1CC1
bioavailability [21]: 25%
clearance [36]: 54 mL/min/kg
clearance [37]: 42 mL/min/kg
IC50 [17]: 354 nM
AUC [38]: 40.7 µM·h
bioavailability [27]: 40.7%
AUC [28]: 3.34 µM·h
EC50 (Hepatitis C virus [39]): 15 nM

CC(C)(C)NC(=O)N[C@H](C(=O)N1C[C@H]2[C@@H]([C@H]1C(=O)NC(CC1CCC1)C(=O)C(N)=O)C2(C)C)C(C)(C)C (some centres not stated) [BOCEPREVIR]
Ki [40]: 6 nM
Ki [25]: 6 nM
Ki [26]: 6 nM

C=C[C@@H]1C[C@]1(NC(=O)[C@@H]1C[C@@H]2CN1C(=O)[C@H](C1CCCC1)NC(=O)O[C@@H]1CCC[C@H]1CCCCCn1c(nc3cc(OC)ccc3c1=O)O2)C(=O)NS(=O)(=O)C1(C)CC1 [MK-2748]
half-life [6]: 1.9 h
bioavailability [21]: 40%
Cmax [7]: 490 nM
Vd [41]: 5 L/kg
clearance [36]: 88 mL/min/kg
Ki [25]: 0.009 nM
Vd [42]: 0.12 L/kg
Ki [26]: 1.2 nM
bioavailability [27]: 27%
AUC [10]: 2420 µM·h
Cmax [43]: 4400 nM
AUC [34]: 28.9 µM·h
clearance [44]: 1 mL/min/kg
IC50 [20]: 0.009 nM
half-life [32]: 2.5 h
